Experimental data reported in patent publication EP1036783B1 (MERCK & CO. INC., priority 1999, dated 2000).

Legend:
clinical = conditions: human, in vivo
HMG-CoA reductase [1] = conditions: human, in vivo
HMG-CoA reductase [2] = conditions: following intraduodenal administration of dihydroxy open acid simvastatin

CCC(C)(C)C(=O)O[C@H]1C[C@@H](C)C=C2C=C[C@H](C)[C@H](CC[C@@H](O)C[C@@H](O)CC(=O)O)[C@H]21 [SVA, dihydroxy open acid simvastatin]
effect of itraconazole measured as the unchanged drug (clinical): 1.5 fold
Tmax (clinical; SVA in plasma): 4.1 h
Tmax (clinical; Simyastatin Acid in plasma): 4.1 ± 2.1 h
half-life (clinical; t1/2, SV in plasma): 6.7 h
half-life (clinical; t1/2, SVA in plasma): 2.3 h
half-life (clinical; t1/2, Simyastatin Acid in plasma): 2.3 ± 0.5 h
Cmax, Active Inhibitors (HMG-CoA reductase [1]): 5.7 = 3.0 ng eq/mL
Tmax, Active HMG-CoA reductase inhibitors (HMG-CoA reductase [1]): 3.6 (2.5) hr
change by itraconazole pre-treatment in AUC and Cmax of HMG-CoA reductase inhibitory activity (total or active) (HMG-CoA reductase [1]): 1.3-1.5 fold
lactonization of dihydroxy open acid simvastatin or its active metabolites (HMG-CoA reductase [2]): occurred minimally
